Measurements reported in patent publication US9133224B2, “Macrocyclic kinase inhibitors” (OSI Pharmaceuticals, LLC, priority 2010, dated 2015).
Read-outs that look alike come from different tables or passages of the source.

Experiments:
[1] = target: T1, GST-tagged full-length FAK enzyme (PTK2) (Homo sapiens, UniProt Q05397); experiment: Biochemical Omnia Assay (FAK)
T1 construct: GST-tagged full-length FAK enzyme (PTK2, Invitrogen PV4085); GST; purchased Invitrogen PV4085
Procedure: Biochemical Omnia Assay Protocol
The Omnia Assay (Invitrogen) has been optimized for GST-tagged full-length FAK enzyme (PTK2, Invitrogen PV4085).
All compound concentrations were assayed in duplicate. Initial compound dilutions were prepared at 100× concentration in 100% DMSO from a 10 mM stock solution. Compounds were further diluted 1:25 in assay buffer resulting in a 4× concentrated solution.
In running the assay, 5 μL of the above 4× concentrated compound solution (or 4% DMSO for positive controls) was added to the assay plate followed by 5 μL of a solution containing peptide (40 μM) and ATP (200 μM) in assay buffer. The reaction was initiated by the addition of 10 μL of FAK (50 nM) in assay buffer, or assay buffer alone for negative controls. The increase in fluorescence due to peptide phosphorylation was monitored continuously as a function of time using a Spectramax M5 plate reader (Molecular Devices) equipped with SoftMax Pro 5.2 software.
IC50 values were determined from the slopes of the linear progress curves by non-linear curve-fitting using GraphPad Prism 5 (GraphPad Software, Inc.).

FAK = target: T2, FAK (Homo sapiens, UniProt Q05397); experiment: Cell-based capture ELISA for inhibition of FAK autophosphorylation [pY397] in U87MG cells
T2 construct: endogenous in cells; host or cells: U87MG glioblastoma cells (ATCC HTB-14)
Procedure: Cell-Based Assays for Inhibition of FAK Autophosphorylation: MiaPaCa2 and U87MG
The ability of compounds to inhibit FAK autophosphorylation was determined in a cell-based capture ELISA assay using U87MG glioblastoma cells (ATCC, Cat # HTB-14) and the FAK [pY397]ELISA kit from Invitrogen (KHO0441). The assay determines the ability of compounds to block endogenous autophosphorylation of FAK stimulated by fibronectin. Cells plated on fibronectin coated 96-well plate were incubated with compounds at various concentrations in the complete growth medium for 2 h. Cell lysates were then prepared and FAK protein was captured onto a FAK antibody-coated 96-well ELISA plate. The phosphotyrosine content of FAK protein was then monitored by quantitation of degree of binding of an antibody that recognizes only the phosphorylated FAK at Y397 within the captured protein.
Reagents Provided in Biosource FAK [pY397]
Cultures of U87MG cells growing in MEM (Earles) containing non-essential amino acids, sodium pyruvate (1 mM), […] (1%) and 10% fetal bovine serum were detached by trypsin-EDTA and suspended in cell growth medium. Cells were then plated onto fibronectin (600 ng/well)-coated 96-well flat bottom plates at 1.7×10^4 cells per well in 60 uL cell growth medium and incubated overnight at 37° C. in a CO2 incubator.
Compound dilutions were prepared from 10 mM DMSO stocks by dilution in cell growth medium, the final concentration of DMSO in the assay being 0.6%. […] The cells were then incubated with compounds at 37° C. for 2 h. The medium was removed by aspiration and cells were lysed by addition of 20 uL of ice-cold cell lysis buffer per well. The plates were kept on ice for 20 min and 50 uL of standard diluent was added to each well. 50 uL of cell lysate from each well was transferred to respective wells in an assay plate and 50 uL of detection antibody was added to all wells except H1-H6 which were no antibody control wells. Capture assay plates were incubated overnight in a cold room.
Following incubation of the cell lysates and detection antibodies in the ELISA plate, the wells were washed 4 times with 120 uL of wash buffer (1×), then 100 uL of diluted HRP conjugated antibody (1:100 dil in diluent) was added to each well, and the plate was incubated at RT for 30 min. The wells were then washed for 4 times with 120 uL of wash buffer (1×) and 100 uL of chromogen was added to each well and incubated in the dark at RT for 5-10 min. 100 uL of stop solution was added to each well and the absorbance measured at 450 nm, 0.1 s.
Comparison of the assay signals obtained in the presence of compound with those of positive and negative controls (cells with no compound and no detection antibody being added), allows degree of inhibition of phospho-FAK [Y397] to be determined over a range of compound concentrations. […] The assay as described above was modified to determine the effect of inclusion of 50% (v/v) mouse or human plasma. In this assay, the compound plate was prepared as 2× concentration in 100 uL of 100% mouse or human plasma, and 60 uL of this was added to 60 uL of culture medium and incubated at 37° C. incubator for 2 h. The rest of the assay was carried out as described above.

[2] = 50% (v/v) mouse plasma, mean IC50, read-out: FAK Activity Mechanistic (U87MG) MP
[3] = no plasma present, mean IC50, read-out: FAK Activity Mechanistic (U87MG) NP
[4] = mean IC50, [ATP] = 50uM, read-out: FAK Activity Biochemical OMNIA, [ATP] = 50uM
[5] = 50% (v/v) human plasma, mean IC50, read-out: FAK Activity Mechanistic (U87MG) HP
[6] = FAK Activity Mechanistic (U87MG) MP, 50% (v/v) mouse plasma, mean IC50

T1 sequence (Q05397 whole entry): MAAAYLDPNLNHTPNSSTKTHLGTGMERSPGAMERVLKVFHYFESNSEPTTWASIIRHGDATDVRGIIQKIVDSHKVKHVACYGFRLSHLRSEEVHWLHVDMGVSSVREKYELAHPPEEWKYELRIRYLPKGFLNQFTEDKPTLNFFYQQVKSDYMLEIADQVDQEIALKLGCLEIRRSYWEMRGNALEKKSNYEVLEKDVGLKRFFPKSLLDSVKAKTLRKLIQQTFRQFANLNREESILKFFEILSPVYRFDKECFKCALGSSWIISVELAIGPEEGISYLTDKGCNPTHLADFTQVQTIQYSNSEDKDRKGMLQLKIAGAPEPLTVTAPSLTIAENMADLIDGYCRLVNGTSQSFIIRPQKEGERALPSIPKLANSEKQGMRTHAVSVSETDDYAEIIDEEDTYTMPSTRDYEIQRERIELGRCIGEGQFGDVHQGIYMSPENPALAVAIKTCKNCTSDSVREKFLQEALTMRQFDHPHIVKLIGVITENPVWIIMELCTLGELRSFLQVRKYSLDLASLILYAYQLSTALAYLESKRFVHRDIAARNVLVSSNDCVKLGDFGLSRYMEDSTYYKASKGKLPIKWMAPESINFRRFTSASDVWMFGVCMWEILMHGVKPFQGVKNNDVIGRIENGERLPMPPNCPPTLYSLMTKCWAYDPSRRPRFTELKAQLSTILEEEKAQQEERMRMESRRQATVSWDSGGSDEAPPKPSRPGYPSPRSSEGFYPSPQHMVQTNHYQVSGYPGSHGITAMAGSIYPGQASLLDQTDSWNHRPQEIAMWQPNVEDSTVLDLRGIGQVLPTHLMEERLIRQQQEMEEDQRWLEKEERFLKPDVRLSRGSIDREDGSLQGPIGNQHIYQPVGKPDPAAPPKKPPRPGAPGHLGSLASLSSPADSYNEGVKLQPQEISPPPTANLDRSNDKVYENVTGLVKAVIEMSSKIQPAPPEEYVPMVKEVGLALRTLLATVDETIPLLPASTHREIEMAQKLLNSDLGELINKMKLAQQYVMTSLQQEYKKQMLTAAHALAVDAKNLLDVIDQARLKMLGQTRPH
T2 sequence (Q05397 whole entry): as above

Compound | IC50 [1] [µM] | IC50 (FAK; [2]) [µM] | IC50 (FAK; [3]) [µM] | IC50 [1, 4] [µM] | IC50 (FAK; [5]) [µM] | IC50 (FAK; [6]) [µM]
CCOP1(=O)Cc2ccc(c(OC)c2)Nc2ncc(C(F)(F)F)c(n2)Nc2ccc(c(C)c2C(=O)NC)-c2cnn(c2)CCCO1 (racemic) [Example 29] | < 0.4 | > 4 | 0.4 to 4 | – | – | –
CCOP1(=O)Cc2ccc(c(OC)c2)Nc2ncc(C(F)(F)F)c(n2)Nc2ccc(c(OC)c2C(=O)NC)-c2cnn(c2)CCCO1 (racemic) [Example 30] | < 0.4 | 0.4 to 4 | < 0.4 | – | – | –
CCOP1(=O)Cc2ccc(c(OC)c2)Nc2ncc(C(F)(F)F)c(n2)Nc2cc(F)c(c3c2C(=O)N(C)C3)-c2cnn(c2)CCCO1 (racemic) [Example 31] | < 0.4 | – | < 0.4 | – | – | –
CCOP1(=O)Cc2ccc(c(Br)c2)Nc2ncc(C(F)(F)F)c(n2)Nc2ccc(nc2C(=O)NC)-c2cnn(c2)CCCO1 (racemic) [Example 32] | – | – | < 0.4 | < 0.4 | < 0.4 | –
CCOP1(=O)Cc2ccc(c(C)c2)Nc2ncc(C(F)(F)F)c(n2)Nc2ccc(nc2C(=O)NC)-c2cnn(c2)CCCO1 (racemic) [Example 33] | < 0.4 | – | < 0.4 | – | < 0.4 | –
CCOP1(=O)Cc2ccc(c(OC)c2)Nc2ncc(C(F)(F)F)c(n2)Nc2ccc(nc2C(=O)NC)-c2cn(nc2C)CCCO1 (racemic) [Example 34] | – | – | < 0.4 | < 0.4 | < 0.4 | –
CCOP1(=O)Cc2ccc(c(OC)c2)Nc2ncc(C(F)(F)F)c(n2)Nc2ccc(nc2C(=O)NC)-c2cnn(c2C)CCCO1 (racemic) [Example 35] | – | – | < 0.4 | < 0.4 | < 0.4 | –
CCOP1(=O)Cc2ccc(c(OC)c2)Nc2cc(c(C(F)(F)F)cn2)Nc2ccc(nc2C(=O)NC)-c2cnn(c2)CCCO1 (racemic) [Example 36] | < 0.4 | 0.4 to 4 | < 0.4 | – | < 0.4 | –
CCCP1(=O)Cc2ccc(c(OC)c2)Nc2ncc(C(F)(F)F)c(n2)Nc2ccc(nc2C(=O)NC)-c2cnn(c2)CCCO1 (racemic) [Example 37] | – | 0.4 to 4 | < 0.4 | < 0.4 | < 0.4 | –
CCOP1(=O)Cc2ccc(c(OC)c2)Nc2ncc(C(F)(F)F)c(n2)Nc2ccc(nc2C(=O)NC)-c2cc(C(=O)O)n(c2)CCCO1 (racemic) [Example 39] | < 0.4 | – | 0.4 to 4 | – | – | > 4
CCOP1(=O)Cc2ccc(c(OC)c2)Nc2ncc(C(F)(F)F)c(n2)Nc2ccc(nc2C(=O)NC)-c2cc(C(=O)N3CC(C)(O)C3)n(c2)CCCO1 (racemic) [Example 40] | < 0.4 | – | < 0.4 | – | – | 0.4 to 4
CCOP1(=O)Cc2ccc(c(OC)c2)Nc2ncc(C(F)(F)F)c(n2)Nc2ccc(nc2C(=O)NC)-c2cc(C(=O)N(C)C)n(c2)CCCO1 (racemic) [Example 41] | < 0.4 | – | < 0.4 | – | < 0.4 | –
CCOP1(=O)Cc2ccc(c(OC)c2)Nc2ncc(C(F)(F)F)c(n2)Nc2ccc(nc2C(=O)NC)-c2cc(C(=O)NC)n(c2)CCCO1 (racemic) [Example 42] | < 0.4 | – | < 0.4 | – | < 0.4 | 0.4 to 4
CCOP1(=O)Cc2ccc(c(OC)c2)Nc2ncc(C(F)(F)F)c(n2)Nc2ccc(nc2C(=O)NC)-c2c(C)nn(c2C)CCCO1 (racemic) [Example 43] | – | – | < 0.4 | < 0.4 | 0.4 to 4 | –
CCOP1(=O)Cc2ccc(c(OC)c2)Nc2ncc(C(F)(F)F)c(n2)Nc2ccc(nc2C(=O)NC)-c2cnn(c2)CC2(COC2)CO1 (racemic) [Example 44] | < 0.4 | – | < 0.4 | – | < 0.4 | –
